Source: patent publication US9108993B2, “Pyrazole derivatives as sphingosine 1-phosphate (S1P) receptor modulators” (Allergan, Inc., priority 2013, dated 2015)

Biological target: T1, human S1P1 receptor (Homo sapiens, UniProt P21453)
T1 construct: expressed in transfected cells; membranes were used
Assay: GTP γ35S binding assay for S1P1 activity
Format: biochemical
Conditions: membranes of cells stably expressing the S1P1 receptor, agonist potency
Experimental: Compounds were synthesized and tested for S1P1 activity using the GTP γ^35S binding assay. These compounds may be assessed for their ability to activate or block activation of the human S1P1 receptor in cells stably expressing the S1P1 receptor.
GTP γ^355 binding was measured in the medium containing (mM) HEPES 25, pH 7.4, MgCl2 10, NaCl 100, dithiothreitol 0.5, digitonin 0.003%, 0.2 nM GTP γ^35 S, and 5 μg membrane protein in a volume of 150 μl. Test compounds were included in the concentration range from 0.08 to 5,000 nM unless indicated otherwise. Membranes were incubated with 100 μM 5′ adenylylimidodiphosphate for 30 min, and subsequently with 10 μM GDP for 10 min on ice. Drug solutions and membrane were mixed, and then reactions were initiated by adding GTP γ^35S and continued for 30 min at 25° C. Reaction mixtures were filtered over Whatman GF/B filters under vacuum, and washed three times with 3 mL of ice-cold buffer (HEPES 25, pH7.4, MgCl2 10 and NaCl 100). Filters were dried and mixed with scintillant, and counted for ^35S activity using a β-counter. Agonist-induced GTP γ^35S binding was obtained by subtracting that in the absence of agonist. Binding data were analyzed using a non-linear regression method. In case of antagonist assay, the reaction mixture contained 10 nM S1P in the presence of test antagonist at concentrations ranging from 0.08 to 5000 nM.

T1 sequence (P21453 whole entry): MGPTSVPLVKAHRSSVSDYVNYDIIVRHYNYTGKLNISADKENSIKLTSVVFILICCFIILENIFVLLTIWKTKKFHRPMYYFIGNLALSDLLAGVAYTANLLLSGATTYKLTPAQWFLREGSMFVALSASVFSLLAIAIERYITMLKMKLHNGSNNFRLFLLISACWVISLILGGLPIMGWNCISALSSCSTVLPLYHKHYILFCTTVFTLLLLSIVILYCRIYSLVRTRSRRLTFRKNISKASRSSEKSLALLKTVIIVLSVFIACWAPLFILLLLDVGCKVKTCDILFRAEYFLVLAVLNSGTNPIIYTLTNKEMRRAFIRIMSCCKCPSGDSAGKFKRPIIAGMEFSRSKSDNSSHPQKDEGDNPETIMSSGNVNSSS

- EC50: 262 nM
Structure (SMILES): Cc1nn(C(=O)CCc2ccc(CNCCC(=O)O)cc2)c2c1C1C(C2)C1(C)C (stereo not shown) [Compound 1, 3-({4-[3-oxo-3-(3,4,4-trimethyl-3b,4,4a,5-tetrahydro-1H-cyclopropa[3,4]cyclopenta[1,2-c]pyrazol-1-yl)propyl]benzyl}amino)propanoic acid]
